Literature values in patent US20120016124A1, “SEROTONIN REUPTAKE INHIBITORS” (Baylor University, priority 2007, published 2012).
Where two headings read alike, the source gives them in different places.

What was measured:
5-HT2A = 5-HT2A (Homo sapiens, UniProt P28223); settings: cited from earlier work
SERT = SERT (Homo sapiens, UniProt P31645); settings: reference compounds, Orjales, cited from earlier work

Measured: Ki

Sequence of SERT (P31645 whole entry, species assumed): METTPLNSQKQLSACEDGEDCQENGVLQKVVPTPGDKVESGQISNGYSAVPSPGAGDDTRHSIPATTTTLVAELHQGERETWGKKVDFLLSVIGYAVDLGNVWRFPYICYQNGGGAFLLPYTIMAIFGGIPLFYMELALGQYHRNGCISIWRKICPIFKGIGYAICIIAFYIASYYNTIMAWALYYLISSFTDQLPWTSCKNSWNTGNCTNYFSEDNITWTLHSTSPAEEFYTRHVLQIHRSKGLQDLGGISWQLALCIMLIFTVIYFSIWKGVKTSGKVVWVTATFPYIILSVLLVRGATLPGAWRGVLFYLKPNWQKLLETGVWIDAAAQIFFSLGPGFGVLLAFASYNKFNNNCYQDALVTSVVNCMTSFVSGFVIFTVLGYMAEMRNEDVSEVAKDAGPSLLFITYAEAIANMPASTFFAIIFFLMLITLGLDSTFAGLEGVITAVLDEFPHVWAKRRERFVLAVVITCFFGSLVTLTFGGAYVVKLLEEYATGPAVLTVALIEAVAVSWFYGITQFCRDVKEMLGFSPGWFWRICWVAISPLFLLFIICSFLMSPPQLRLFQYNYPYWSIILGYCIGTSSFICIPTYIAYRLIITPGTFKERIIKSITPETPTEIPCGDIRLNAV
Sequence of 5-HT2A (P28223 whole entry, species assumed): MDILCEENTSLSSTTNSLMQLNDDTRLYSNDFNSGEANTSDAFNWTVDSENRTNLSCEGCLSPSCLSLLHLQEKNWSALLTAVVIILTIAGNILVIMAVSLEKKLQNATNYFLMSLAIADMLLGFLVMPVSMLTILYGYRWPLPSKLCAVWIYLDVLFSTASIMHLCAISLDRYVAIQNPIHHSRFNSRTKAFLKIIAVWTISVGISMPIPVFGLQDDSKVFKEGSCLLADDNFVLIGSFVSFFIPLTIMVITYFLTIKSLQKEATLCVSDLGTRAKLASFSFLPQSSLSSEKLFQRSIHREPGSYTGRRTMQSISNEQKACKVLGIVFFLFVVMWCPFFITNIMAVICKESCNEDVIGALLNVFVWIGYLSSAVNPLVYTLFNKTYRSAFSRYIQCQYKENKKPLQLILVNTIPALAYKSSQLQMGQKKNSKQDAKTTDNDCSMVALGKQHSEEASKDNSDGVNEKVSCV

CCCN(CCC)C1CCc2cccc(O)c2C1 (stereo not shown) [Compound 8-OH-DPAT]
> 1000 nM: 5-HT2A | SERT; Table 5, et al. 2003 | SERT; Table 7, et. al., 2003 | SERT; Table 8, et. al., 2003
